System: c-fos expression in key brain regions involved in stress response
Test: Single Prolonged Stress (SPS) model, count of c-fos positive neurons in brain regions
Format: in vivo
Settings: mice, IA1-29 30 mg/kg p.o. given before SPS, locus ceruleus, amygdala, hypothalamus, bed nuclei stria terminalis (FIG. 1)
Procedure: The quinazolinone of the invention was named IA1-29 and was tested in an in vivo model that mimics the activation that occurs in the brain after a prolonged stress stimulus.
The effects of the administration of IA1-29 at 30 mg/kg p.o. in brain activation were assessed in mice subjected to the Single Prolonged Stress (SPS) model. The SPS protocol is a well established model of PTSD that combines multiple stressors (physical restraint, forced swim, predator scent and ether anesthesia (Borghans & Homberg, 2015; Yamamoto et al., 2009)). The activation of specific brain regions was determined by counting the number of neurons expressing the c-fos protein, an immediate early gene product that can be used as a marker of cell activation in individual neurons. […] The count of c-fos positive neurons in some of these regions can be visualized in FIG. 1. The experiment comprised three different groups (n=10 per group): mice not subjected to the SPS protocol (Sham), mice subjected to the SPS model (SPS) and animals submitted to the SPS protocol but pre-treated with IA1-29 at 30 mg/kg (IA1-29+SPS). The brain regions exemplified in FIG. 1 are locus ceruleus (FIG. 1A), amygdala (FIG. 1B), hypothalamus (FIG. 1C) and bed nuclei stria terminalis (FIG. 1D). […]

Question: Which “SPS-induced c-fos expression in key brain regions involved in stress response (count of c-fos positive neurons)” value does the source give for `COc1ccccc1N1CCN(CCn2cnc3ccccc3c2=O)CC1` [IA1-29, 3-(2-(4-(2-methoxyphenyl)piperazine-1-yl)ethyl) quinazoline-4(3H)-one] here?
Answer: suppressed

— patent publication US20210221774A1, “TREATMENT OF POST-TRAUMATIC SYNDROME DISORDER” (Aché Laboratórios Farmacêuticos S.A, priority 2017, published 2021)
